Numbers after ± are expanded uncertainties.
Experiment: xn = mol fraction of the nth substance listed
Settings: Liquid; for mass density: Vibrating tube method; for viscosity: Concentric cylinders viscometry

C=CCCCC [hex-1-ene] + CCCCO
Settings | mass density, 273.15 K [kg/m3] | mass density, 293.15 K [kg/m3] | mass density, 313.15 K [kg/m3] | mass density, 333.15 K [kg/m3] | viscosity, 293.15 K [mPa·s] | viscosity, 303.15 K [mPa·s] | viscosity, 313.15 K [mPa·s]
100 kPa, x1 = 0.1001 | 808.1 ± 0.7 | 792.4 ± 0.7 | 776.5 ± 0.7 | 759.7 ± 0.7 | – | – | –
100 kPa, x1 = 0.3999 | 764.1 ± 0.7 | 747 ± 0.7 | 729.5 ± 0.7 | 711.1 ± 0.7 | – | – | –
100 kPa, x1 = 0.5018 | 751.4 ± 0.7 | 734 ± 0.7 | 716 ± 0.7 | 697.2 ± 0.7 | – | – | –
100 kPa, x1 = 0.5997 | 739 ± 0.7 | 721.2 ± 0.7 | 702.9 ± 0.7 | 683.7 ± 0.7 | – | – | –
100 kPa, x1 = 0.9 | 700.4 ± 0.7 | 681.8 ± 0.7 | 662.7 ± 0.7 | 642.8 ± 0.7 | – | – | –
100 kPa, x1 = 1 | 691.5 ± 0.7 | 672.8 ± 0.7 | 653.8 ± 0.7 | 634 ± 0.7 | – | – | –
100 kPa, x2 = 0 | – | – | – | – | 0.28 ± 0.007 | 0.257 ± 0.007 | 0.236 ± 0.006
100 kPa, x2 = 0.1001 | – | – | – | – | 0.316 ± 0.008 | 0.283 ± 0.007 | 0.255 ± 0.007
100 kPa, x2 = 0.2 | – | – | – | – | 0.355 ± 0.009 | 0.316 ± 0.008 | 0.285 ± 0.007
100 kPa, x2 = 0.3002 | – | – | – | – | 0.422 ± 0.01 | 0.369 ± 0.009 | 0.322 ± 0.008
100 kPa, x2 = 0.3999 | – | – | – | – | 0.522 ± 0.012 | 0.448 ± 0.01 | 0.386 ± 0.009
100 kPa, x2 = 0.5018 | – | – | – | – | 0.669 ± 0.015 | 0.565 ± 0.013 | 0.475 ± 0.011
100 kPa, x2 = 0.5997 | – | – | – | – | 0.86 ± 0.019 | 0.703 ± 0.015 | 0.595 ± 0.013
100 kPa, x2 = 0.7002 | – | – | – | – | 1.159 ± 0.025 | 0.938 ± 0.02 | 0.763 ± 0.017
100 kPa, x2 = 0.7999 | – | – | – | – | 1.558 ± 0.033 | 1.24 ± 0.026 | 0.997 ± 0.021
100 kPa, x2 = 0.9 | – | – | – | – | 2.125 ± 0.045 | 1.667 ± 0.035 | 1.327 ± 0.028
1000 kPa, x1 = 0.1001 | 808.5 ± 0.7 | 793.1 ± 0.7 | 777.2 ± 0.7 | 760.6 ± 0.7 | – | – | –
1000 kPa, x1 = 0.3999 | 764.6 ± 0.7 | 747.7 ± 0.7 | 730.4 ± 0.7 | 712.2 ± 0.7 | – | – | –
1000 kPa, x1 = 0.5018 | 751.9 ± 0.7 | 734.8 ± 0.7 | 716.9 ± 0.7 | 698.3 ± 0.7 | – | – | –
1000 kPa, x1 = 0.5997 | 739.5 ± 0.7 | 722 ± 0.7 | 703.9 ± 0.7 | 684.9 ± 0.7 | – | – | –
1000 kPa, x1 = 0.9 | 701 ± 0.7 | 682.7 ± 0.7 | 663.9 ± 0.7 | 644.1 ± 0.7 | – | – | –
1000 kPa, x1 = 1 | 692.1 ± 0.7 | 673.8 ± 0.7 | 654.9 ± 0.7 | 635.4 ± 0.7 | – | – | –
2000 kPa, x1 = 0.1001 | 809.3 ± 0.7 | 793.8 ± 0.7 | 778.1 ± 0.7 | 761.6 ± 0.7 | – | – | –
2000 kPa, x1 = 0.3999 | 765.4 ± 0.7 | 748.6 ± 0.7 | 731.4 ± 0.7 | 713.4 ± 0.7 | – | – | –
2000 kPa, x1 = 0.5018 | 752.7 ± 0.7 | 735.7 ± 0.7 | 718 ± 0.7 | 699.6 ± 0.7 | – | – | –
2000 kPa, x1 = 0.5997 | 740.4 ± 0.7 | 723 ± 0.7 | 705 ± 0.7 | 686.3 ± 0.7 | – | – | –
2000 kPa, x1 = 0.9 | 701.9 ± 0.7 | 683.8 ± 0.7 | 665.1 ± 0.7 | 645.6 ± 0.7 | – | – | –
2000 kPa, x1 = 1 | 693 ± 0.7 | 674.9 ± 0.7 | 656.2 ± 0.7 | 636.9 ± 0.7 | – | – | –
5000 kPa, x1 = 0.1001 | 811.3 ± 0.7 | 796.2 ± 0.7 | 780.6 ± 0.7 | 764.5 ± 0.7 | – | – | –
5000 kPa, x1 = 0.3999 | 767.7 ± 0.7 | 751.2 ± 0.7 | 734.3 ± 0.7 | 716.8 ± 0.7 | – | – | –
5000 kPa, x1 = 0.5018 | 755.1 ± 0.7 | 738.4 ± 0.7 | 721.1 ± 0.7 | 703.1 ± 0.7 | – | – | –
5000 kPa, x1 = 0.5997 | 742.8 ± 0.7 | 725.8 ± 0.7 | 708.2 ± 0.7 | 690 ± 0.7 | – | – | –
5000 kPa, x1 = 0.9 | 704.6 ± 0.7 | 686.9 ± 0.7 | 668.7 ± 0.7 | 649.9 ± 0.7 | – | – | –
5000 kPa, x1 = 1 | 695.8 ± 0.7 | 678 ± 0.7 | 659.9 ± 0.7 | 641.3 ± 0.7 | – | – | –
10000 kPa, x1 = 0.1001 | 814.6 ± 0.7 | 799.7 ± 0.7 | 784.6 ± 0.7 | 768.9 ± 0.7 | – | – | –
10000 kPa, x1 = 0.3999 | 771.4 ± 0.7 | 755.3 ± 0.7 | 739 ± 0.7 | 722 ± 0.7 | – | – | –
10000 kPa, x1 = 0.5018 | 758.9 ± 0.7 | 742.7 ± 0.7 | 725.9 ± 0.7 | 708.6 ± 0.8 | – | – | –
10000 kPa, x1 = 0.5997 | 746.7 ± 0.7 | 730.2 ± 0.7 | 713.2 ± 0.7 | 695.7 ± 0.8 | – | – | –
10000 kPa, x1 = 0.9 | 708.8 ± 0.7 | 691.7 ± 0.8 | 674.2 ± 0.8 | 656.3 ± 0.8 | – | – | –
10000 kPa, x1 = 1 | 700 ± 0.8 | 682.9 ± 0.8 | 665.5 ± 0.8 | 647.8 ± 0.8 | – | – | –
15000 kPa, x1 = 0.1001 | 817.8 ± 0.7 | 803.2 ± 0.7 | 788.4 ± 0.7 | 773.1 ± 0.7 | – | – | –
15000 kPa, x1 = 0.3999 | 774.9 ± 0.7 | 759.2 ± 0.8 | 743.3 ± 0.8 | 727.1 ± 0.8 | – | – | –
15000 kPa, x1 = 0.5018 | 762.5 ± 0.7 | 746.7 ± 0.8 | 730.5 ± 0.8 | 713.8 ± 0.8 | – | – | –
15000 kPa, x1 = 0.5997 | 750.4 ± 0.8 | 734.4 ± 0.8 | 718 ± 0.8 | 701.1 ± 0.8 | – | – | –
15000 kPa, x1 = 0.9 | 712.8 ± 0.8 | 696.2 ± 0.8 | 679.5 ± 0.8 | 662.2 ± 0.8 | – | – | –
15000 kPa, x1 = 1 | 704 ± 0.8 | 687.5 ± 0.8 | 670.8 ± 0.8 | 653.9 ± 0.8 | – | – | –
20000 kPa, x1 = 0.1001 | 820.8 ± 0.7 | 806.5 ± 0.7 | 792.1 ± 0.8 | 777.2 ± 0.8 | – | – | –
20000 kPa, x1 = 0.3999 | 778.2 ± 0.8 | 762.9 ± 0.8 | 747.5 ± 0.8 | 731.6 ± 0.8 | – | – | –
20000 kPa, x1 = 0.5018 | 766 ± 0.8 | 750.5 ± 0.8 | 734.8 ± 0.8 | 718.7 ± 0.8 | – | – | –
20000 kPa, x1 = 0.5997 | 754 ± 0.8 | 738.3 ± 0.8 | 722.4 ± 0.8 | 706.1 ± 0.8 | – | – | –
20000 kPa, x1 = 0.9 | 716.5 ± 0.8 | 700.4 ± 0.8 | 684.2 ± 0.8 | 667.8 ± 0.8 | – | – | –
20000 kPa, x1 = 1 | 707.8 ± 0.8 | 691.8 ± 0.8 | 675.7 ± 0.8 | 659.5 ± 0.8 | – | – | –
30000 kPa, x1 = 0.1001 | 826.5 ± 0.8 | 812.8 ± 0.8 | 799 ± 0.8 | 784.7 ± 0.8 | – | – | –
30000 kPa, x1 = 0.3999 | 784.4 ± 0.8 | 769.9 ± 0.8 | 755.2 ± 0.8 | 740.3 ± 0.8 | – | – | –
30000 kPa, x1 = 0.5018 | 772.4 ± 0.8 | 757.7 ± 0.8 | 742.7 ± 0.8 | 728.5 ± 0.8 | – | – | –
30000 kPa, x1 = 0.5997 | 760.6 ± 0.8 | 745.7 ± 0.8 | 730.6 ± 0.8 | 715.4 ± 0.8 | – | – | –
30000 kPa, x1 = 0.9 | 723.6 ± 0.8 | 708.3 ± 0.8 | 693.1 ± 0.9 | 677.7 ± 0.9 | – | – | –
30000 kPa, x1 = 1 | 715 ± 0.8 | 699.8 ± 0.8 | 684.6 ± 0.9 | 669.5 ± 0.9 | – | – | –
40000 kPa, x1 = 0.1001 | 831.9 ± 0.8 | 818.6 ± 0.8 | 805.3 ± 0.8 | 791.6 ± 0.8 | – | – | –
40000 kPa, x1 = 0.3999 | 790.2 ± 0.8 | 776.3 ± 0.8 | 762.2 ± 0.8 | 748 ± 0.9 | – | – | –
40000 kPa, x1 = 0.5018 | 778.4 ± 0.8 | 764.2 ± 0.8 | 749.9 ± 0.9 | 736.5 ± 0.9 | – | – | –
40000 kPa, x1 = 0.5997 | 766.8 ± 0.8 | 752.4 ± 0.9 | 738 ± 0.9 | 723.5 ± 0.9 | – | – | –
40000 kPa, x1 = 0.9 | 730.1 ± 0.9 | 715.5 ± 0.9 | 700.9 ± 0.9 | 686.5 ± 0.9 | – | – | –
40000 kPa, x1 = 1 | 721.6 ± 0.9 | 707 ± 0.9 | 692.6 ± 0.9 | 678.4 ± 0.9 | – | – | –
50000 kPa, x1 = 0.1001 | 837 ± 0.8 | 824.1 ± 0.8 | 811.1 ± 0.8 | 798 ± 0.8 | – | – | –
50000 kPa, x1 = 0.3999 | 795.7 ± 0.8 | 782.2 ± 0.9 | 768.7 ± 0.9 | 755.2 ± 0.9 | – | – | –
50000 kPa, x1 = 0.5018 | 783.9 ± 0.9 | 770.2 ± 0.9 | 756.5 ± 0.9 | 743.8 ± 0.9 | – | – | –
50000 kPa, x1 = 0.5997 | 772.3 ± 0.9 | 758.6 ± 0.9 | 744.7 ± 0.9 | 731 ± 0.9 | – | – | –
50000 kPa, x1 = 0.9 | 736.1 ± 0.9 | 722.1 ± 0.9 | 708.2 ± 1 | 694.4 ± 1 | – | – | –
50000 kPa, x1 = 1 | 727.6 ± 0.9 | 713.7 ± 1 | 699.9 ± 1 | 686.3 ± 1 | – | – | –
60000 kPa, x1 = 1 | 733.2 ± 1 | 719.9 ± 1 | 706.9 ± 1 | 693.7 ± 1.1 | – | – | –
70000 kPa, x1 = 1 | 738.7 ± 1 | 725.8 ± 1.1 | 713 ± 1.1 | 700.5 ± 1.1 | – | – | –
